Assay results reported in patent EP2746260A1, “Substituted [1,2,4]triazole and imidazole compounds” (BASF SE, priority 2012, dated 2014).

Columns and labels:
Botrytis cinerea [1] = test: Activity against the grey mold in the microtiterplate test (Botrci); type: cell-based; conditions: relative growth vs compound-free control (100%), 405 nm, 7 days after inoculation
Pyricularia oryzae = type: cell-based; conditions: relative growth vs compound-free control (100%), 405 nm, 7 days after inoculation
Phakopsora pachyrhizi = test: Protective control of soy bean rust on soy beans (Phakpa P1), green house; type: in vivo; conditions: 150ppm spray, inoculated 1 day after treatment, % diseased leaf area, untreated control 70
Botrytis cinerea [2] = test: Preventative fungicidal control of Botrytis cinerea on leaves of green pepper (Botrci P1), green house; type: in vivo; conditions: 150ppm spray, inoculated next day, % diseased leaf area after 5 days, untreated control 100
Description: (§1) The stock solution were prepared: a mixture of acetone and/or dimethylsulfoxide and the wetting agent/emulsifier Wettol, which is based on ethoxylated alkylphenoles, in a relation (volume) solvent-emulsifier of 99 to 1 was added to 25 mg of the compound to give a total of 5 ml. Water was then added to total volume of 100 ml. This stock solution was diluted with the described solvent-emulsifier-water mixture to the given concentration.
2. Preventative fungicidal control of Botrytis cinerea on leaves of green pepper (Botrci P1)
Young seedlings of green pepper were grown in pots to the 4 to 5 leaf stage. These plants were sprayed to run-off with an aqueous suspension, containing the concentration of active ingredient or their mixture mentioned in the table below. The next day the plants were inoculated with an aqueous biomalt solution containing the spore suspension of Botrytis cinerea. Then the plants were immediately transferred to a humid chamber. After 5 days at 22 to 24· C and a relative humidity close to 100 % the extent of fungal attack on the leaves was visually assessed as % diseased leaf area.

Botrytis cinerea [3] = test: Long lasting control of Botrytis cinerea on leaves of green pepper (Botrci P7), green house; type: in vivo; conditions: 16ppm spray, inoculated 7 days after treatment, % diseased leaf area after 5 days, untreated control 90
Description: as §1
3. Long lasting control of Botrytis cinerea on leaves of green pepper (Botrci P7)
Young seedlings of green pepper were grown in pots to the 4 to 5 leaf stage. These plants were sprayed to run-off with an aqueous suspension, containing the concentration of active ingredient or their mixture mentioned in the table below. The plants were then cultivated in the greenhouse for 7 days and then inoculated with an aqueous biomalt solution containing the spore suspension of Botrytis cinerea. Then the plants were immediately transferred to a humid chamber. After 5 days at 22 to 24· C and a relative humidity close to 100 % the extent of fungal attack on the leaves was visually assessed as % diseased leaf area.

Septoria tritici = test: Preventative control of leaf blotch on wheat (Septtr P1), green house; type: in vivo; conditions: 150ppm spray, inoculated following day, % diseased leaf area after 4 weeks, untreated control 100
Description: as §1
4. Preventative control of leaf blotch on wheat caused by Septoria tritici (Septtr P1)
Leaves of pot-grown wheat seedling were sprayed to run-off with an aqueous suspension of the active compound or their mixture, prepared as described. The plants were allowed to air-dry. At the following day the plants were inoculated with an aqueous spore suspension of Septoria tritici. Then the trial plants were immediately transferred to a humid chamber at 18-22°C and a relative humidity close to 100 %. After 4 days the plants were transferred to a chamber with 18-22°C and a relative humidity close to 70 %. After 4 weeks the extent of fungal attack on the leaves was visually assessed as % diseased leaf area.

Puccinia recondita = test: Preventative control of brown rust on wheat (Puccrt P7), green house; type: in vivo; conditions: 16ppm spray, inoculated seven days after treatment, % diseased leaf area, untreated control 90
Description: as §1
5. Preventative control of brown rust on wheat caused by Puccinia recondita (Puccrt P7)
The first two developed leaves of pot-grown wheat seedling were sprayed to run-off with an aqueous suspension, containing the concentration of active ingredient or their mixture as described below. Seven days later the plants were inoculated with spores of Puccinia recondita. To ensure the success the artificial inoculation, the plants were transferred to a humid chamber without light and a relative humidity of 95 to 99 % and 20 to 24· C for 24 h. Then the trial plants were cultivated for 6 days in a greenhouse chamber at 20-24 °C and a relative humidity between 65 and 70 %. The extent of fungal attack on the leaves was visually assessed as % diseased leaf area.

In the case of `CC(c1ccccc1Cl)C(O)(C(C)n1ncnc1S)C1(Cl)CC1` (stereo not shown) [Compound I-7], the “Growth (%) at 31ppm Botrci” value (Botrytis cinerea [1]) is reported as 0%, the “Growth (%) at 8ppm Pyrior” value (Pyricularia oryzae) is reported as 0% and the “Growth (%) at 31ppm Pyrior” value (Pyricularia oryzae) is reported as 0%.

With `CC(c1ccccc1Cl)C(O)(C(C)n1cncn1)C1(Cl)CC1` (stereo not shown) [Compound I-1, 3-(1-Chlorocyclopropyl)-2-(2-chlorophenyl)-4-(1,2,4-triazol-1-yl)pentan-3-ol] the “Disease (%) at 150ppm Phakpa P1” value (Phakopsora pachyrhizi) was 10%, the “Growth (%) at 31ppm Botrci” value (Botrytis cinerea [1]) was 19% and the “Growth (%) at 31ppm Pyrior” value (Pyricularia oryzae) was 0%.

With `CC(n1cncn1)C(O)(Cc1ccc(Oc2ccc(Cl)cc2)cc1Cl)C1(Cl)CC1` (stereo not shown) [Compound I-4] the “Disease (%) at 150ppm Phakpa P1” value (Phakopsora pachyrhizi) was 15% and the “Growth (%) at 31ppm Pyrior” value (Pyricularia oryzae) was 6%.

For `CC(n1cncn1)C(O)(Cc1ccccc1Cl)C1(Cl)CC1` (stereo not shown) [Compound I-3], the “Disease (%) at 150ppm Phakpa P1” value (Phakopsora pachyrhizi) was 0%, the “Disease (%) at 150ppm Botrci P1” value (Botrytis cinerea [2]) was 0% and the “Disease (%) at 16ppm Botrci P7” value (Botrytis cinerea [3]) was 15%. The “Disease (%) at 150ppm Septtr P1” value (Septoria tritici) was 3%, the “Disease (%) at 16ppm Puccrt P7” value (Puccinia recondita) was 3% and the “Growth (%) at 31ppm Botrci” value (Botrytis cinerea [1]) was 1%. For the same compound, the “Growth (%) at 31ppm Pyrior” value (Pyricularia oryzae) was 0%.

`OC(Cc1ccccc1Cl)(Cn1cncn1)C1(Cl)CC1` (stereo not shown) [Comparative 2, reference compound] was tested, and the “Disease (%) at 16ppm Botrci P7” value (Botrytis cinerea [3]) was 30% and the “Disease (%) at 16ppm Puccrt P7” value (Puccinia recondita) was 50%.

In the case of `CC(n1cncn1)C(O)(Cc1ccc(-c2ccc(Cl)cc2)cc1Cl)C1(Cl)CC1` (stereo not shown) [Compound I-5], the “Growth (%) at 31ppm Pyrior” value (Pyricularia oryzae) is reported as 10%.

With `OC(Cc1ccccc1Cl)(Cn1ncnc1S)C1(Cl)CC1` (stereo not shown) [Comparative 1, reference compound] the “Growth (%) at 8ppm Pyrior” value (Pyricularia oryzae) was 33%.

For `CC(n1ncnc1S)C(O)(Cc1ccccc1Cl)C1(Cl)CC1` (stereo not shown) [Compound I-6], the “Disease (%) at 150ppm Phakpa P1” value (Phakopsora pachyrhizi) was 0%, the “Growth (%) at 8ppm Pyrior” value (Pyricularia oryzae) was 6% and the “Growth (%) at 31ppm Pyrior” value (Pyricularia oryzae) was 0%.
